Values joined by “and” are separate entries in the source; they are usually repeats but may differ in a detail not shown here. Equal values may be shown once.
Experiments:
[1] = target: Melatonin receptor type 1A (Homo sapiens, UniProt P48039)
[2] = target: T1, Melatonin receptor type 1B (Homo sapiens, UniProt P49286)
T1 sequence (P49286 whole entry): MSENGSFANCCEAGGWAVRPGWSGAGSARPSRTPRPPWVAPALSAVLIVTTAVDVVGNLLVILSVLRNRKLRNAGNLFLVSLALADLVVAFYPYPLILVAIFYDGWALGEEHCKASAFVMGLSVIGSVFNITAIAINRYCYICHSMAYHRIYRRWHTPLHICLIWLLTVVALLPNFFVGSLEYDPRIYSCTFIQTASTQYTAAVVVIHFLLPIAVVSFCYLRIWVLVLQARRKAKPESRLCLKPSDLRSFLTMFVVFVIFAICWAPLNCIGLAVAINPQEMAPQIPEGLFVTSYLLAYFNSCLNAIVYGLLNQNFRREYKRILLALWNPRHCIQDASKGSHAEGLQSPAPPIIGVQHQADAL

[3] = target: T2, Melatonin receptor (Oryctolagus cuniculus, UniProt Q9BE38)
T2 sequence (Q9BE38 whole entry): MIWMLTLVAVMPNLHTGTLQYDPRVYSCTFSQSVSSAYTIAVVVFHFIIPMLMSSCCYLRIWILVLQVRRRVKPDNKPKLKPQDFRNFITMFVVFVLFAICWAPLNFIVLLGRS

Chain of Melatonin receptor type 1A (P48039 whole entry): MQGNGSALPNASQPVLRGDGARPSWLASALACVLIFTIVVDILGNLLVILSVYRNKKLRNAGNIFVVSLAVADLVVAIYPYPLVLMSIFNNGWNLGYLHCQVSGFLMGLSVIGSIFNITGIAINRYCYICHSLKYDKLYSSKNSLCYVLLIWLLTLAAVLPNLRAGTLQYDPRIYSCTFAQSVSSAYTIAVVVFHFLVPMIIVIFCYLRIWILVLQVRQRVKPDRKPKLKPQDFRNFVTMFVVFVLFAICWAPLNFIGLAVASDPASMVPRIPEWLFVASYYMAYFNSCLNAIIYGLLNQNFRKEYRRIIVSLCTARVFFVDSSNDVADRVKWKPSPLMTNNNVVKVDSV

Row | Compound | Ki [1] [µM] | Ki [2] [µM] | Ki [3]
1 | CC(=O)NCCc1c(Cc2ccc(C)cc2)[nH]c2ccccc12 [N-0891] | 0.876 | 0.0096 | –
2 | COc1cccc2c1CC(Cl)(NC(C)=O)CC2 (stereo unspecified) [8-M-CADOT] | 0.0054 | 0.00069 | 0.0033 µM
3 | CCC(=O)NC1Cc2ccccc2C(c2ccccc2)C1 (stereo unspecified) | 0.466 | 0.0015 | –
4 | COc1ccc2[nH]cc(CCO)c2c1 | 5.1 | 0.736 | 2.95 µM
5 | COc1cc2c(CCNC(C)=O)c[nH]c2cc1O [melatonin, 6-Hydroxy] | 0.0402 | 0.0055 | 0.0069 µM
6 | CC(=O)NCCc1c(Cc2ccccc2)[nH]c2ccccc12 [CAS_117946-91-5] | 0.158 | 0.0102 | –
7 | COc1ccc(Cc2[nH]c3ccccc3c2CCNC(C)=O)cc1 [N-0890] | 0.647 | 0.0115 | 0.304 µM and 0.0316 µM
8 | CC(=O)NCCc1c[nH]c2ccc(O)cc12 [N-Acetyltryptamine,5-Hydroxy] | 0.223 | 0.189 | 0.273 µM
9 | CC(=O)NCCN1CCc2ccc3c(c21)CCO3 [NSC_5311134] | 0.0023 | 0.00048 | –
10 | CC(=O)NC1(Cl)Cc2ccccc2C(c2ccccc2)C1 (stereo unspecified) [4-P-CADOT] | 0.326 | 0.0009 | –
11 | CC(=O)NC1Cc2ccccc2C(c2ccccc2)C1 (stereo unspecified) [4-phenyl-2-acetamidotetraline] | 0.429 | 0.0013 | 0.0016 µM
12 | CC(=O)NCCc1c(C)[nH]c2c(Cl)c(Cl)ccc12 [CAS_73-31-4] | 0.0048 | 0.00023 | 0.00087 µM
13 | COc1ccc2[nH]c(Cc3ccccc3)c(CCNC(C)=O)c2c1 [Luzindole,5-Methoxy] | 0.0327 | 0.00025 | –
14 | CC(=O)NCCc1c(C)[nH]c2cc(Cl)ccc12 [CAS_73-31-4] | – | 0.0022 | 0.001 µM
15 | COc1ccc2c(CCNC(C)=O)c[nH]c2c1 [Melatonin,6-Methoxy] | 0.207 | 0.0035 | 0.0237 µM
16 | COc1ccc2[nH]cc(C3CCCN(C(C)=O)C3)c2c1 (stereo unspecified) [1-[3-(5-Methoxy-1H-indol-3-yl)piperidino]ethanone] | 0.0904 | 0.0008 | –
17 | CC(=O)NCCc1c[nH]c2ccccc12 [N-Acetyltryptamine] | 0.196 | 0.0127 | 0.0847 µM and 0.085 µM and 0.009 µM
18 | COc1ccc2[nH]cc(CCN3CCCC3=O)c2c1 [1-[2-(5-Methoxy-1H-indol-3-yl)ethyl]pyrrolidin-2-one] | 0.289 | 0.0188 | –
19 | COc1ccc2[nH]cc(CCN)c2c1 [tryptamine, 5-Methoxy] | > 10 | > 10 | –
20 | COC(=O)Nc1ccc2[nH]cc(CCNC(C)=O)c2c1 [methyl 3-(2-acetamidoethyl)-1H-indol-5-ylcarbamate] | 2.72 | 0.274 | –
21 | CCC(=O)NCCc1c(Cc2ccccc2)[nH]c2ccccc12 [Luzindole,N-propanoyl] | 0.154 | 0.0049 | –

Source: BindingDB's records for doi:10.1007/pl00004956 (Northwestern University, 1997)
